Results taken from patent publication US11897904B2, “Herbicidally active bicyclic benzamides” (Bayer Aktiengesellschaft, priority 2017, dated 2024).

How the values were obtained:
[1] = test system: VERPE; experiment: Pre-emergence herbicidal action; assay type: in vivo, Veronica persica; details: 320 g/ha, scored visually after about 3 weeks vs untreated controls
Text: (§1) 1. Pre-Emergence Herbicidal Action and Crop Plant Compatibility
(§2) Seeds of monocotyledonous and dicotyledonous weed plants and crop plants are placed in plastic or organic planting pots and covered with soil. The compounds of the invention, formulated in the form of wettable powders (WP) or as emulsion concentrates (EC), are then applied onto the surface of the covering soil as aqueous suspension or emulsion with addition of 0.5% additive at a water application rate of 600 l/ha (converted). After the treatment, the pots are placed in a greenhouse and kept under good growth conditions for the trial plants. After about 3 weeks, the effect of the preparations is scored visually in comparison with untreated controls as percentages. The tables below show the herbicidal activity of numerous compounds according to the invention against important harmful plants. For example, 100% activity=the plants have died, 0% activity=like control plants.

[2] = test system: AMARE; experiment: Pre-emergence herbicidal action; assay type: in vivo, Amaranthus retroflexus; details: 320 g/ha, scored visually after about 3 weeks vs untreated controls
Text: as §1, §2

[3] = test system: CYPES; experiment: Pre-emergence herbicidal action; assay type: in vivo, Cyperus esculentus; details: dosage 320 g/ha, scored visually after about 3 weeks vs untreated controls, 100% = plants have died, 0% = like control plants
Text: as §1, §2

[4] = test system: AMARE; experiment: Post-emergence herbicidal action; assay type: in vivo, Amaranthus retroflexus; details: 80 g/ha, rated visually after about 3 weeks vs untreated controls
Description: (§3) 2. Post-Emergence Herbicidal Action and Crop Plant Compatibility
(§4) Seeds of monocotyledonous and dicotyledonous weeds and crop plants are placed in sandy loam in plastic or organic planting pots, covered with soil and cultivated in a greenhouse under controlled growth conditions. 2 to 3 weeks after sowing, the test plants are treated at the one-leaf stage. The compounds of the invention, formulated in the form of wettable powders (WP) or as emulsion concentrates (EC), are then sprayed onto the green parts of the plants as aqueous suspension or emulsion with addition of 0.5% additive at a water application rate of […] (converted). After the test plants had been kept in the greenhouse under optimum growth conditions for about 3 weeks, the activity of the preparations is rated visually in comparison to untreated controls. The tables below show the herbicidal activity of numerous compounds according to the invention against important harmful plants. For example, 100% activity=the plants have died, 0% activity=like control plants.

[5] = test system: PHBPU; experiment: Post-emergence herbicidal action; assay type: in vivo, Ipomoea purpurea; details: 80 g/ha, rated visually after about 3 weeks vs untreated controls
Description: as §3, §4

[6] = test system: ECHCG; experiment: Post-emergence herbicidal action; assay type: in vivo, Echinochloa crus-galli; details: 80 g/ha, rated visually after about 3 weeks vs untreated controls
Description: as §3, §4

[7] = test system: SETVI; experiment: Pre-emergence herbicidal action; assay type: in vivo, Setaria viridis; details: pre-emergence, 320 g/ha, scored visually after about 3 weeks vs untreated controls
Text: as §1, §2

[8] = test system: SETVI; experiment: Post-emergence herbicidal action; assay type: in vivo, Setaria viridis; details: 80 g/ha, rated visually after about 3 weeks vs untreated controls
Description: as §3, §4

[9] = test system: VERPE; experiment: Post-emergence herbicidal action; assay type: in vivo, Veronica persica; details: 80 g/ha, rated visually after about 3 weeks vs untreated controls
Description: as §3, §4

[10] = test system: VIOTR; experiment: Pre-emergence herbicidal action; assay type: in vivo, Viola tricolor; details: 320 g/ha, scored visually after about 3 weeks vs untreated controls
Text: as §1, §2

[11] = test system: STEME; experiment: Post-emergence herbicidal action; assay type: in vivo, Stellaria media; details: 80 g/ha, rated visually after about 3 weeks vs untreated controls
Description: as §3, §4

[12] = test system: STEME; experiment: Pre-emergence herbicidal action; assay type: in vivo, Stellaria media; details: 320 g/ha, scored visually after about 3 weeks vs untreated controls
Text: as §1, §2

[13] = test system: ABUTH; experiment: Pre-emergence herbicidal action; assay type: in vivo, Abutilon theophrasti; details: pre-emergence, 320 g/ha, scored visually after about 3 weeks vs untreated controls
Text: as §1, §2

[14] = test system: MATIN; experiment: Pre-emergence herbicidal action; assay type: in vivo, Matricaria inodora; details: pre-emergence, 320 g/ha, scored visually after about 3 weeks vs untreated controls
Text: as §1, §2

[15] = test system: ECHCG; experiment: Pre-emergence herbicidal action; assay type: in vivo, Echinochloa crus-galli; details: 320 g/ha, scored visually after about 3 weeks vs untreated controls
Text: as §1, §2

[16] = test system: VIOTR; experiment: Post-emergence herbicidal action; assay type: in vivo, Viola tricolor; details: 80 g/ha, rated visually after about 3 weeks vs untreated controls
Description: as §3, §4

[17] = test system: MATIN; experiment: Post-emergence herbicidal action; assay type: in vivo, Matricaria inodora; details: 80 g/ha, rated visually after about 3 weeks vs untreated controls
Description: as §3, §4

[18] = test system: ABUTH; experiment: Post-emergence herbicidal action; assay type: in vivo, Abutilon theophrasti; details: post-emergence, 80 g/ha, rated visually after about 3 weeks vs untreated controls
Description: as §3, §4

Compound	herbicidal activity VERPE [1] [%]	herbicidal activity AMARE [2] [%]	herbicidal activity CYPES [3] [%]	herbicidal activity AMARE [4] [%]	herbicidal activity PHBPU [5] [%]	herbicidal activity ECHCG [6] [%]	herbicidal activity SETVI [7] [%]	herbicidal activity SETVI [8] [%]	herbicidal activity VERPE [9] [%]	herbicidal activity VIOTR [10] [%]	herbicidal activity STEME [11] [%]	herbicidal activity STEME [12] [%]	herbicidal activity ABUTH [13] [%]	herbicidal activity MATIN [14] [%]	herbicidal activity ECHCG [15] [%]	herbicidal activity VIOTR [16] [%]	herbicidal activity MATIN [17] [%]	herbicidal activity ABUTH [18] [%]
Cc1ccc(C(=O)Nc2nnnn2C)c2c1[S+]([O-])CO2 (stereo not drawn) [Example 2-65]	80	90	90	–	–	–	–	–	–	–	–	–	–	–	–	–	–	–
Cn1nnnc1NC(=O)c1ccc(C(F)(F)F)c2c1OC[S+]2[O-] (stereo not drawn) [Example 2-68, 4-(trifluoromethyl)-1,3-benzoxathiolane-N-(1-methyltetrazol-5-yl)-7-carboxamide 3-oxide]	100	100	90	100	90	100	100	90	100	100	100	90	90	90	90	100	90	–
Cn1nnnc1NC(=O)c1ccc(C(F)F)c2c1OC[S+]2[O-] (stereo not drawn) [Example 2-69]	90	100	–	90	80	100	90	80	90	100	100	90	100	90	90	100	90	90
Cn1nnnc1NC(=O)c1ccc(C(F)(F)F)c2c1OCS2(=O)=O [Example 2-83]	100	100	100	100	90	90	100	90	90	100	100	100	100	90	100	100	100	90
CC1Oc2c(C(=O)Nc3nnnn3C)ccc(C(F)(F)F)c2S1(=O)=O (stereo not drawn) [Example 2-106]	–	100	90	100	80	100	90	100	–	100	100	90	100	100	90	100	90	90
CCn1nnnc1NC(=O)c1ccc(C(F)(F)F)c2c1OCS2 [Example 3-52]	80	100	–	100	100	100	90	100	100	90	100	100	90	90	90	100	90	80
CCn1nnnc1NC(=O)c1ccc(C(F)(F)F)c2c1OC[S+]2[O-] (stereo not drawn) [Example 3-67]	100	100	80	100	100	100	80	–	100	100	100	100	90	90	100	100	90	80
CCn1nnnc1NC(=O)c1ccc(C(F)(F)F)c2c1OCS2(=O)=O [Example 3-82]	100	100	90	100	90	80	–	–	100	100	100	100	90	100	100	100	100	–
